{"source": "patent US12678433B2", "about": "“Compounds for treatment of hemolysis-and inflammasome-associated diseases” (New York Blood Center, Inc., priority 2020, dated 2026)", "key": {"[1]": {"tested_on": "CD27+ memory B cells from healthy donors", "test": "7-day stimulated memory B cell culture", "type": "cell-based, human", "conditions": "different doses of hemin, 7 days", "text": "FIG. 6A-G. Effect of heme on memory plasmablast differentiation and IgG class-switch B cell development. FIG. 6A: Gating strategy for single live B cell analysis after culture. FIG. 6B: Fold change in CD38+ plasmablast cells in 7-day stimulated HD purified CD27+ memory B cells (as described for naïve B cell cultures in FIG. 1) in the presence of different doses of hemin relative to no hemin treatment. FIG. 6C: Histogram showing IgG expression levels in CD38+ plasmablasts from naïve B cell stimulated cultures. FIG. 6D: Fold change of IgG+ cell frequency in CD38+ plasmablasts in the presence of 2.5 μM or 5 μM hemin relative to no hemin treatment in stimulated naïve B cells from HD, Allo(−) and Allo(+) SCD patients. FIG. 6E: Naïve B cells from HD were cultured with 20% SCD patients' sera from Allo(−) or Allo(+) patients and stimulated with B cell activation cocktail for 7 days as described. Frequency of CD38+ plasmablasts is shown. FIG. 6F: Fold change of proliferated B cell frequency (within total, live B cells) in the presence of 2.5 μM or 5 μM hemin relative to no hemin treatment in stimulated naïve B cells from HD, Allo(−) and Allo(+) SCD patients. FIG. 6G: The change and fold change of live cell frequency in total 7-day stimulated HD B cell in the presence of different concentrations of hemin.\nCell isolation and culture."}, "[2]": {"tested_on": "splenic B cells from C57BL/6J mice", "test": "Mouse B cell differentiation in vitro", "type": "cell-based", "conditions": "7 days, hemin 2.5 or 5 μM, different doses of quinine"}, "[3]": {"tested_on": "DOCK8", "test": "DOCK8 expression and DOCK8hi/DOCK8lo subsets in stimulated B cells", "type": "cell-based, human", "conditions": "heme 5 μM", "text": "We next tested the effect of cell-free heme on DOCK8 signaling during B cell differentiation. […] Heme treatment led to inhibition of CD27^hiBlimp-1^+ plasma cell differentiation (FIG. 2D, p=0.0195)."}, "[4]": {"tested_on": "purified naïve B cells from healthy donors", "experimental": "Hemin and RBC lysate preparation. Hemin, dissolved in dimethyl sulfoxide (DMSO), stock concentration 10 mM, was diluted to 100 μM with serum-free RPMI 1640 culture medium just prior to addition to B cell cultures. For short-term experiments lasting less than 24 hr, a final concentration of 10 μM hemin was used whereas for longer-term culture up to 7 days, 2.5-5 μM final heme concentration was used. RBC lysates were freshly prepared (containing ~80 g/L hemoglobin) for same day use. Briefly, 4 ml whole blood from healthy donors was passed through Acrodisc WBC syringe filter (Pall Corporation) to remove white blood cells followed by two washes with Dulbecco's Phosphate Buffered Saline (D-PBS) (200×g, 10 min at room temperature with no brake) for removal of platelets. The RBC pellet was lysed with 3 times volume of distilled water for 10 min at 37° C. Cellular debris was pelleted by centrifugation at 4000×g for 10 min at 4° C. The RBC lysate was transferred to a new tube and 1/9 volume of 10×D-PBS added.\nCell isolation and culture. Peripheral blood mononuclear cells (PBMCs) were prepared by Ficoll (GE Healthcare) density gradient centrifugation from healthy donor leukopak products as well as from sickle peripheral blood apheresis waste bags. Human naïve and memory B cells were isolated from PBMCs using a human memory B Cell Isolation Kit (Miltenyi Biotec) by collecting CD27− B cells (naïve B cells) and CD27+ B cell (memory B cells) separately. […] RPMI 1640 culture medium was used for all cell culture experiments (supplemented with 10% FBS, 100-unit penicillin-streptomycin, […], 1 mM sodium pyruvate, all from Thermo Fisher Scientific). Purified B cells were stained with CFSE (Cat #: C34554, Thermo Fisher Scientific) and cultured in U-bottom 96 well plates (2.5×10^5/well/200 μl culture medium) in the presence of goat anti-human IgA+IgG+IgM (H+L) F(ab′)2 fragment (2.5 μg/ml, Jackson ImmunoResearch), CD154 (10 ng/ml, R&D Systems) and CpG (ODN 7909, 1 nM, Cat #: tlrl-2006-1) without IL-2 for analysis of only CD38+ plasmablast differentiation or with IL-2 (5 ng/ml, Cat #:1081-IL-020, R&D Systems) in experiments to detect CD27^hiBlimp-1+ plasma cells. In addition, heme and various inhibitors were added to the cultures at the start point and incubated for 7 days.\nCultured cells: stimulated B cells were transferred into U bottom 96 well plate and washed with 200 μl MACS buffer (D-PBS containing 0.5% BSA and 2 mM EDTA) at 300×g for 5 min at 4° C. After one wash, cells were stained for surface expression of CD19, CD38, CD27 using 25 μl staining buffer (anti-CD19, CD38, CD27 antibodies, diluted 200 fold with MACS buffer) for 30 min at 4° C. After one wash with 200 μl MACS buffer, cells were resuspended in 100 μl D-PBS and 50 μl Fixable Viability Dye eFluor™ 780 (1000 fold diluted with D-PBS, Thermo Fisher Scientific) was added for dead cell detection for 5 min at room temperature. Cells were washed one time with MACS buffer and 100 μl D-DPS was added just before flow cytometric analysis (LSRFortessa flow cytometer, BD Bioscience). For intracellular staining of IgG, Blimp-1 and HO-1, samples were first washed with 200 μl MACS buffer before addition of 150 μl Fixation/Permeabilization buffer (Thermo Fisher Scientific) for 45 min at 4° C. After fixation, samples were washed twice with 1× Permeabilization buffer (Thermo Fisher Scientific) and stained with 25 μl intracellular staining buffer (anti-human IgG, DOCK8, Blimp-1, HO-1 antibodies, diluted 200 fold with 1× Permeabilization buffer) for 45 min at 4° C., after which the cells were washed twice with Permeabilization buffer and 100p D-DPS was added prior to flow cytometric analysis."}, "[5]": {"tested_on": "Bach2", "test": "Bach2 levels in human B cells", "type": "cell-based", "conditions": "in the presence of heme"}, "[6]": {"conditions": "HD naïve B cells, 7 days, highest heme concentration tested (5 μM)"}}, "note": "Where two headings read alike, the source gives them in different places."}
{"compound": "C=CC1=C(C)c2cc3[n-]c(cc4[n-]c(cc5nc(cc1n2)C(C)=C5C=C)c(C)c4CCC(=O)O)c(CCC(=O)O)c3C.[Fe+2]", "note": "[heme, iron(III) complex of protoporphyrin IX]", "values": [{"measurement": "effect on memory B cell proliferation or differentiation", "setting": "[1]", "result": "no effect"}, {"measurement": "mouse plasma cell differentiation", "setting": "[2]", "result": "did not inhibit"}, {"measurement": "reduction in DOCK8hi subset", "setting": "[3]", "result": "61.6%±6.5%"}, {"measurement": "reduction in DOCK8lo subset", "setting": "[3]", "result": "34.1%±5.9%"}, {"measurement": "effect on B cell proliferation", "setting": "[4]; 2.5 μM heme", "result": "minor inhibition"}, {"measurement": "effect on differentiation of naïve B cells into plasmablasts", "setting": "[4]; 2.5 μM heme", "result": "robust inhibitory effect"}, {"measurement": "B cell class switch recombination (percent IgG+ B cells)", "setting": "[4]; 2.5 or 5 μM hemin", "result": "not affected"}, {"measurement": "inhibition of B cell proliferation", "setting": "[4]; [6]", "result": "6.8%±1.3%"}, {"measurement": "inhibition of plasmablast cell differentiation", "setting": "[4]; [6]", "result": "52.7%±8.0%"}, {"measurement": "effect on B cell proliferation", "setting": "[4]; heme 2.5 μM, SnPPIX 2.5 μM, alone or together", "result": "little to no effect"}, {"measurement": "CD27hiBlimp-1+ plasma cell differentiation", "setting": "[4]; heme 2.5 or 5 μM, 7 days", "result": "inhibition"}, {"measurement": "percentage of viable B cells", "setting": "[4]; highest dose of heme used", "result": "high"}, {"measurement": "Bach2 levels", "setting": "[5]", "result": "no significant change"}]}
